Paper PMC10328743, “5-Nitro-3-(2-(4-phenylthiazol-2-yl)hydrazineylidene)indolin-2-one derivatives inhibit HIV-1 replication by a multitarget mechanism of action” (Frontiers in Cellular and Infection Microbiology, 2023)
Like-named read-outs stand apart in the source and are kept apart here.

What was measured:
[1] = Viability of infected MT4 cells (cytotoxicity); format: cell-based; details: human, MT4 cells infected with HIV-1; infected MT4 cells viability; three independent experiments, average ± standard deviation
Protocol: (§1) HIV-1 replication was carried out in MT4 cells as previously reported ([Corona et al., 2016a]) using a molecular clone derived from the pNL4-3 ([Thierry et al., 2015]). A total of 120 ng of p24^gag antigen per 10^6 cells, corresponding to a multiplicity of infection (m.o.i.) of 0.3, was used for infection. […] Flow cytometry analysis was performed on a FACSCalibur flow cytometer (BD Biosciences, San Jose, CA, USA), and the results were analyzed using the […] software.

MT4 cells [2] = test: Viability of infected MT4 cells (cytotoxicity); format: cell-based; details: no toxicity up to the highest concentration tested
Protocol: as §1

HIV-1 [3] = test: HIV-1 replication inhibition in MT4 cells; format: cell-based; details: three independent experiments, average ± standard deviation, read-out: HIV-1 EC50
Protocol: as §1

HIV-1 RT-associated RDDP = target: T1, HIV-1 RT-associated RDDP (Human immunodeficiency virus type 1 group M subtype B, UniProt P04585); test: HIV-1 RNA-dependent DNA polymerase activity determination; format: biochemical; details: wt HIV-1 RT; three independent experiments, average ± standard deviation; read-out: RDDP IC50
T1 construct: The 1:1 ratio between the p66/p51 subunits was also verified; His tag (implied only by Ni-NTA IMAC purification); made in house; host or cells: Escherichia coli M15
Protocol: (§2) Escherichia coli strain M15 containing the p6HRT-prot vector (provided by Stuart Le Grice laboratory (NCI Frederick)) was grown to an optical density at 600 nm of 0.7 and induced with 1.7 mM of isopropyl β-D-1-thiogalactopyranoside (IPTG) for 4 h. Protein purification was carried out with a BioLogic LP system (Bio-Rad, Hercules, CA, USA) using a combination of immobilized metal affinity chromatography (IMAC) and ion exchange chromatography. Cell pellets were resuspended in lysis buffer (50 mM of sodium phosphate buffer, pH 7.8, containing 0.5 mg/mL of lysozyme), incubated on ice for 20 min, and, after the addition of NaCl to a final concentration of 0.3 M, were sonicated and centrifuged at 30,000 ×g for 1 h. The supernatant was loaded onto a Ni^2+-NTA-Sepharose column pre-equilibrated with loading buffer (50 mM of sodium phosphate buffer, pH 7.8, containing 0.3 M of NaCl, 10% glycerol, and 10 mM of imidazole) and washed thoroughly with wash buffer (50 mM of sodium phosphate buffer, pH 6.0, containing 0.3 M of NaCl, 10% glycerol, and 80 mM of imidazole). RT was eluted with an imidazole gradient in the wash buffer (0–0.5 M). Fractions were collected, and protein purity was checked by sodium dodecyl sulfate–polyacrylamide gel electrophoresis (SDS-PAGE) and found to be higher than 90%. The 1:1 ratio between the p66/p51 subunits was also verified. Enzyme-containing fractions were pooled and diluted 1:1 with 50 mM of sodium phosphate buffer, pH 7.0, containing 10% glycerol, and then loaded into a Hi-trap heparin HP GE (Healthcare LifeScience) pre-equilibrated with 10 column volumes of loading buffer (50 mM of sodium phosphate buffer, pH 7.0, containing 10% glycerol, and 150 mM of NaCl). The column was then washed with loading buffer, and the RT was eluted with Elute Buffer 2 (50 mM of sodium phosphate, pH 7.0, 10% glycerol, 1 M of NaCl). Fractions were collected, and the protein was dialyzed and stored in a buffer containing 50 mM of Tris-HCl, pH 7.0, 25 mM of NaCl, 1 mM of EDTA, and 50% glycerol. Catalytic activities and protein concentrations were determined. Enzyme-containing fractions were pooled, and aliquots were stored at −80°C.
(§3) RDDP activity was measured as previously reported in 25-µl volume containing 60 mM of Tris‐HCl buffer, pH 8.1, 8 mM of MgCl2, 60 mM of KCl, 13 mM of DTT, 2.5 µM of poly(A)-oligo(dT), 100 µM of dTTP, increasing concentrations of inhibitors, whose dilution were made in water, and different amounts of enzymes according to a linear range of the dose–response curve. The reaction mixture was incubated for 30 min at 37°C and then stopped by the addition of EDTA. Reaction products were detected by pico green addition and measured with a multilabel counter plate reader Victor 3, equipped with filters for 502/523 nm.

[4] = target: T2, HIV-1 IN (LEDGF-independent) (Human immunodeficiency virus type 1 group M subtype B, UniProt P12497); test: biochemical; details: strand-transfer activity with omission of LEDGF/p75; read-out: IC50 IN LEDGF-independent integration
T2 construct: Preparation of recombinant full-length IN and LEDGF proteins; made in house; host or cells: E. coli BL21(DE3)
Protocol: (§4) Proteins were expressed in E. coli BL21(DE3). Briefly, His-IN was purified by loading the precipitate of cell lysate onto a Ni-Sepharose column and eluting with a […] imidazole gradient (0–500 mM) in a HEPES buffer (50 mM, pH 7.5) containing NaCl (1 M), CHAPS (7.5 mM), and β-mercaptoethanol (2 mM). FLAG-IN was purified by loading the precipitate of cell lysate onto a phenyl-sepharose and ammonium sulfate gradient (0–800 mM) in a HEPES (pH 7.5, 50 mM) buffer containing NaCl (200 mM), CHAPS (7.5 mM), and β-mercaptoethanol (2 mM). Peak fractions were pooled, loaded onto a heparin column, and eluted with an increasing NaCl gradient (200 mM to 1 M) in a HEPES (pH 7.5, 50 mM) buffer containing CHAPS (7.5 mm) and β-mercaptoethanol (2 mM). Fractions containing integrase were pooled and stored in glycerol (10%) at −80°C.
(§5) Briefly, IN (50 nM) was preincubated with increasing concentrations of compounds for 1 h at room temperature in a reaction buffer containing HEPES (20 mM, pH 7.5), DTT (1 mM), glycerol (1%), MgCl2 (20 mM), Brij-35 (0.05%), and bovine serum albumin (BSA) (0.1 mg/ml).

[5] = target: T3, HIV-1 IN-IN subunit exchange (Human immunodeficiency virus type 1 group M subtype B, UniProt P12497); test: HTRF-based IN subunit exchange assay; format: binding
T3 construct: Preparation of recombinant full-length IN and LEDGF proteins; made in house; host or cells: E. coli BL21(DE3)
Protocol: as §4
His and FLAG-tagged INs were mixed in Tris (pH 7.4, 25 mm) buffer containing NaCl (150 mm), MgCl2 (2 mM), Nonidet P-40 (0.1%), and BSA (1 mg/ml). Test compounds were then added to the mixture, and incubation was carried out for 2.5 h at room temperature.

[6] = target: T4, HIV-1 IN (LEDGF/p75-dependent) (Human immunodeficiency virus type 1 group M subtype B, UniProt P12497); test: biochemical; format: biochemical; details: strand-transfer activity in the presence of LEDGF/p75; read-out: IC50 IN LEDGF-dependent integration
T4 construct: Preparation of recombinant full-length IN and LEDGF proteins; made in house; host or cells: E. coli BL21(DE3)
Protocol: as §4, §5

[7] = target: T5, HIV-1 RT-associated RNase H (Human immunodeficiency virus type 1 group M subtype B, UniProt P04585); test: HIV-1 DNA polymerase-independent RNase H activity determination; format: biochemical; details: wt HIV-1 RT; three independent experiments, average ± standard deviation; read-out: RNase H IC50
T5 construct: The 1:1 ratio between the p66/p51 subunits was also verified; His tag (implied only by Ni-NTA IMAC purification); made in house; host or cells: Escherichia coli M15
Protocol: as §2
HIV RT-associated RNase H activity was measured as described ([Corona et al., 2016b]) in a 100-µl reaction volume containing 50 mM of Tris-HCl buffer, pH 7.8, 6 mM of MgCl2, 1 mM of dithiothreitol (DTT), 80 mM of KCl, 0.25 µM of hybrid RNA/DNA 5′-[…]-Fluorescin-3′ (high-performance liquid chromatography (HPLC), dry, QC: Mass Check) (available from Metabion) 5′-Dabcyl-[…]-3′ (HPLC, dry, QC: Mass Check), increasing concentrations of inhibitors, whose dilution were made in water, and different amounts of enzymes according to a linear range of the dose–response curve. The reaction mixture was incubated for 1 h at 37°C and stopped by the addition of EDTA, and products were measured with a multilabel counter plate reader Victor 3 equipped with filters for 490/528 nm.

HIV-1 IN-LEDGF binding = target: T6, HIV-1 IN-LEDGF binding (Human immunodeficiency virus type 1 group M subtype B, UniProt P12497); test: biochemical
T6 construct: Preparation of recombinant full-length IN and LEDGF proteins; made in house; host or cells: E. coli BL21(DE3)
Protocol: as §4
Briefly, His-IN was preincubated with different concentrations of a compound in a buffer containing NaCl (150 mm), MgCl2 (2 mM), Nonidet P-40 (0.1%), BSA (1 mg/ml), and Tris (pH 7.4, 25 mm) for 30 min at room temperature. Then, FLAG-LEDGF was added to the reaction mixture, and a mixture of anti-His6-XL665 and anti-FLAG-EuCryptate antibodies was added.

HIV-1 RT Y188L (RDDP) = test: RDDP activity of Y188L HIV-1 RT; format: biochemical
Protocol: (§6) K103N, Y181C, and Y188L mutations were introduced into the p6HRT-prot vector using the QuikChange protocol (Agilent Technologies, Santa Clara, CA, USA). Enzymes were expressed and purified as the wt-HIV-1 RT.
as §3

HIV-1 RT Y181C (RDDP) = test: RDDP activity of Y181C HIV-1 RT; format: biochemical
Protocol: as §6, §3

MT4 cells [8] = details: cited from earlier work
HIV-1 RT K103N (RDDP) = test: RDDP activity of K103N HIV-1 RT; format: biochemical
Protocol: as §6, §3

HIV-1 [9] = details: read-out: HIV-1 EC50; viral replication in MT4 cells; ref Corona et al. (2014a); cited from earlier work
[10] = Human immunodeficiency virus 1, MT4, viral replication in MT4 cells

Q: With `O=C1Nc2ccc([N+](=O)[O-])cc2/C1=N/Nc1nc(-c2ccc(Cl)cc2)cs1` [1a] as the compound, how does the CC50 [1] read?
A: Its CC50 is > 100 µM.

Q: What about the “toxicity against MT4 cells” value (MT4 cells [2]) of the same compound?
A: The value was > 100 µM.

Q: And the EC50 (HIV-1 [3]; [10])?
A: Its EC50 is < 20 µM.

Q: And the EC50 (HIV-1 [3]; viral replication in MT4 cells)?
A: Its EC50 is 25 ± 2.1 µM.

Q: And the IC50 (HIV-1 RT-associated RDDP)?
A: The IC50 was 10 ± 0.5 µM.

Q: And the IC50 [4]?
A: Its IC50 is 100 µM.

Q: What about the IC50 [5] of the same compound?
A: The IC50 was 22.8 ± 2.6 µM.

Q: What about the IC50 [6] of the same compound?
A: The IC50 was 22.4 ± 4.65 µM.

Q: And the IC50 [7]?
A: Its IC50 is 4.6 ± 1.4 µM.

Q: And the IC50 (HIV-1 IN-LEDGF binding)?
A: The IC50 was > 100 µM.

Q: What does the source list for `O=C1Nc2ccc([N+](=O)[O-])cc2/C1=N/Nc1nc(-c2ccc(Br)cc2)cs1` [3a]?
A: CC50 [1]: > 100 µM; toxicity against MT4 cells (MT4 cells [2]): > 100 µM; EC50 (HIV-1 [3]; [10]): < 20 µM; EC50 (HIV-1 [3]; viral replication in MT4 cells): 32 ± 3.2 µM; IC50 (HIV-1 RT-associated RDDP): 8.5 ± 0.5 µM; IC50 [4]: 73.5 ± 13.5 µM; IC50 [5]: 18.5 ± 3.5 µM; IC50 [6]: 15.5 ± 3 µM; IC50 [7]: 4.3 ± 0.7 µM; IC50 (HIV-1 IN-LEDGF binding): > 100 µM

Q: For `O=C1Nc2ccc(Cl)cc2[C@@](C#CC2CC2)(C(F)(F)F)O1` [EFV, efavirenz], which “increase in IC50 vs wt RT, RDDP activity” value (HIV-1 RT Y188L (RDDP)) is on record?
A: Its value is 14 fold.

Q: And the “increase in IC50 vs wt RT, RDDP activity” value (HIV-1 RT Y181C (RDDP))?
A: Its value is 3.5 fold.

Q: And the CC50 (MT4 cells [8]; read-out: MT4 CC50, MT4 cells viability, ref Corona et al. (2014a))?
A: Its CC50 is > 0.31 µM.

Q: What about the “increase in IC50 vs wt RT, RDDP activity” value (HIV-1 RT K103N (RDDP)) of the same compound?
A: Its value is 9.1 fold.

Q: Which CC50 (MT4 cells [8]) does the source give for `CCOC(=O)C(=O)CC(=O)/C=C/c1cccn1Cc1ccccc1Cl` [RDS1759] here?
A: Its CC50 is > 50 µM.

Q: And the EC50 (HIV-1 [9])?
A: The EC50 was 2.1 µM.

Q: Which IC50 [4] does the source give for `N#Cc1ccc(-c2csc(NN=C3C(=O)Nc4ccccc43)n2)cc1` [RMNC6, reference compound] here?
A: The IC50 was > 100 µM.

Q: What about the IC50 [5] of the same compound?
A: Its IC50 is > 100 µM.

Q: What about the IC50 [6] of the same compound?
A: The IC50 was > 100 µM.

Q: What about the IC50 (HIV-1 IN-LEDGF binding) of the same compound?
A: Its IC50 is > 100 µM.
